Tests used:
potassium arsenate = compound: O=[As]([O-])(O)O.[K+] [potassium arsenate]; experiment: thermal stability z-score vs DMSO; higher = more thermally stabilized by treatment; conditions: HeLa; arsenate concentration 1 mM
Method: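 Cellular thermal proteome profiling in HeLa cells treated with 1 mM arsenate for 1 h (DMSO pretreatment), heated to ten temperatures (37-66.3 °C). Soluble protein was quantified by TMT mass spectrometry relative to DMSO controls; the thermal stability score was transformed to a z-score; mean of n = 3 experiments.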

lipoamide = compound: NC(=O)CCCCC1CCSS1 [lipoamide]; experiment: as above; conditions: HeLa, lipoamide concentration 100 µM
Method: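 Cellular thermal proteome profiling in HeLa cells. Cells were treated with 100 µM lipoamide for 1 h, with or without 1 mM arsenate for a further 1 h, then heated to ten temperatures (37-66.3 °C), and soluble protein was quantified by TMT mass spectrometry relative to 0.1% DMSO controls. The thermal stability score (sum of log2 fold changes minus the abundance score) was transformed to a z-score; mean of n = 3 experiments.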

[1] = arsenate co-treatment: 1 mM arsenate 1 h
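Also: each temperature applied for 3 min, abundance score taken as mean log2 fold change at the two lowest temperatures, z-score obtained by mean subtraction and division by SD.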

POLR2H (UniProt P52434)
thermal stability z-score (potassium arsenate): -0.373
thermal stability z-score (lipoamide; [1]): 0.98
thermal stability z-score (lipoamide; arsenate co-treatment: none): 1.03

C2ORF47 (UniProt Q8WWC4)
Sequence of UniProt Q8WWC4 (Q8WWC4 whole entry): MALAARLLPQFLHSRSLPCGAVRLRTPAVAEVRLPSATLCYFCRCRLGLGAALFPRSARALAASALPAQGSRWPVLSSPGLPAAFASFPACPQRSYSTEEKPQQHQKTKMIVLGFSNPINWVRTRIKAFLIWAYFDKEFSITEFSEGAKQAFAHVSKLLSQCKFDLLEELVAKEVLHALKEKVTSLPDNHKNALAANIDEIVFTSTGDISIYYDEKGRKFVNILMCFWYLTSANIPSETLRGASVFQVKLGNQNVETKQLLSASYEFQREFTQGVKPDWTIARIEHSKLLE
thermal stability z-score (potassium arsenate): 1.09
thermal stability z-score (lipoamide; [1]): 0.0998
thermal stability z-score (lipoamide; arsenate co-treatment: none): -0.181

DCUN1D1 (UniProt Q96GG9)
thermal stability z-score (potassium arsenate): 0.0368
thermal stability z-score (lipoamide; [1]): -0.437
thermal stability z-score (lipoamide; arsenate co-treatment: none): -0.535

MAP7D3 (UniProt Q8IWC1)
thermal stability z-score (potassium arsenate): -1.36
thermal stability z-score (lipoamide; [1]): -0.18
thermal stability z-score (lipoamide; arsenate co-treatment: none): -0.509

RASSF8 (UniProt Q8NHQ8)
thermal stability z-score (potassium arsenate): -0.0803
thermal stability z-score (lipoamide; [1]): -0.0675
thermal stability z-score (lipoamide; arsenate co-treatment: none): -0.05

KBTBD4 (UniProt Q9NVX7)
thermal stability z-score (potassium arsenate): 0.259
thermal stability z-score (lipoamide; [1]): 0.389
thermal stability z-score (lipoamide; arsenate co-treatment: none): -0.408

RPL24 (UniProt P83731)
thermal stability z-score (potassium arsenate): -0.927
thermal stability z-score (lipoamide; [1]): 0.228
thermal stability z-score (lipoamide; arsenate co-treatment: none): -0.084

NRDC (UniProt O43847)
Sequence of UniProt O43847 (O43847 whole entry): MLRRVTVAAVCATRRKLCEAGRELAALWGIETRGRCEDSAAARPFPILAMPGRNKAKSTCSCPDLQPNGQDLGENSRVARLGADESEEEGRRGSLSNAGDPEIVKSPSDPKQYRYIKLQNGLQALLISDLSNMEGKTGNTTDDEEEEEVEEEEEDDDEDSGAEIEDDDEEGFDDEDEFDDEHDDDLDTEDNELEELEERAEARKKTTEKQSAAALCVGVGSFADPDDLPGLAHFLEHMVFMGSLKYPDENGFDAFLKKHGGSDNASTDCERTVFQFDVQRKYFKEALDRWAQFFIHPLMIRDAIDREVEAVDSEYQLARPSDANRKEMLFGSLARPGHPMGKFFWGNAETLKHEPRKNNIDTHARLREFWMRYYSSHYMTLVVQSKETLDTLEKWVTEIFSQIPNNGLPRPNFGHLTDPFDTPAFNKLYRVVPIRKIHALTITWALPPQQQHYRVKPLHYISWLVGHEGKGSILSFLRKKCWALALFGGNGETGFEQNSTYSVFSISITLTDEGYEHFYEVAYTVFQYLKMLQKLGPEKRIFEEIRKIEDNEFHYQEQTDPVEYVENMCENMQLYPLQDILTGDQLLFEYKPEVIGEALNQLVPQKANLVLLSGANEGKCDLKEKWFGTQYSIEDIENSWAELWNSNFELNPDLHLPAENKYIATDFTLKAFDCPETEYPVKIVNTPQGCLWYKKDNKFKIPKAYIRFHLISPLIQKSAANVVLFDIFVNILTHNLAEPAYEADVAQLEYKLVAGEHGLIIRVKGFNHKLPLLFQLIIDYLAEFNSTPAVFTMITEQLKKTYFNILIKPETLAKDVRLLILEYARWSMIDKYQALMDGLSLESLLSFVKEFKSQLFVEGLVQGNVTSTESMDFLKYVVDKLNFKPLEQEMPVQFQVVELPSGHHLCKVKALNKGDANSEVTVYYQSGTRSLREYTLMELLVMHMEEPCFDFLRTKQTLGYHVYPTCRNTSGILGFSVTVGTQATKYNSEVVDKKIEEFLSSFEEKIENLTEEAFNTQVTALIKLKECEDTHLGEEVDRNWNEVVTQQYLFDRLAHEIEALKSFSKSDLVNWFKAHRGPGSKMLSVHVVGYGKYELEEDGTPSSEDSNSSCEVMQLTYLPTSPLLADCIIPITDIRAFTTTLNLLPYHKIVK
thermal stability z-score (potassium arsenate): 0.364
thermal stability z-score (lipoamide; [1]): -0.0123
thermal stability z-score (lipoamide; arsenate co-treatment: none): -0.0343

ACSS2 (UniProt Q9NR19)
thermal stability z-score (potassium arsenate): -0.517
thermal stability z-score (lipoamide; [1]): 0.198
thermal stability z-score (lipoamide; arsenate co-treatment: none): 0.512

CKMT1A (UniProt P12532)
thermal stability z-score (potassium arsenate): 0.795
thermal stability z-score (lipoamide; [1]): 0.957
thermal stability z-score (lipoamide; arsenate co-treatment: none): 0.965

TTC4 (UniProt O95801)
thermal stability z-score (potassium arsenate): -0.14
thermal stability z-score (lipoamide; [1]): -0.0544
thermal stability z-score (lipoamide; arsenate co-treatment: none): 0.0918

TP53RK (UniProt Q96S44)
thermal stability z-score (potassium arsenate): -0.367
thermal stability z-score (lipoamide; [1]): 0.0309
thermal stability z-score (lipoamide; arsenate co-treatment: none): -0.743

HDAC7 (UniProt Q8WUI4)
thermal stability z-score (potassium arsenate): -0.534
thermal stability z-score (lipoamide; [1]): 0.158
thermal stability z-score (lipoamide; arsenate co-treatment: none): -0.253

SEC24D (UniProt O94855)
thermal stability z-score (potassium arsenate): -0.578
thermal stability z-score (lipoamide; [1]): 0.087
thermal stability z-score (lipoamide; arsenate co-treatment: none): -0.238

ZC3HC1 (UniProt Q86WB0)
thermal stability z-score (potassium arsenate): -0.364
thermal stability z-score (lipoamide; [1]): -0.377
thermal stability z-score (lipoamide; arsenate co-treatment: none): 0.164

VPS4A (UniProt Q9UN37)
thermal stability z-score (potassium arsenate): -0.19
thermal stability z-score (lipoamide; [1]): -0.367
thermal stability z-score (lipoamide; arsenate co-treatment: none): -0.472

EXOSC2 (UniProt Q13868)
thermal stability z-score (potassium arsenate): -0.593
thermal stability z-score (lipoamide; [1]): 0.567
thermal stability z-score (lipoamide; arsenate co-treatment: none): 0.234

ID1 (UniProt P41134)
thermal stability z-score (potassium arsenate): -0.00372
thermal stability z-score (lipoamide; [1]): 0.197
thermal stability z-score (lipoamide; arsenate co-treatment: none): 0.0434

RAVER2 (UniProt Q9HCJ3)
thermal stability z-score (potassium arsenate): -0.0887
thermal stability z-score (lipoamide; [1]): 0.204
thermal stability z-score (lipoamide; arsenate co-treatment: none): 0.253

ATPIF1 (UniProt Q9UII2)
thermal stability z-score (potassium arsenate): -0.206
thermal stability z-score (lipoamide; [1]): 0.646
thermal stability z-score (lipoamide; arsenate co-treatment: none): 0.505

TAPT1 (UniProt Q6NXT6)
thermal stability z-score (potassium arsenate): -0.606
thermal stability z-score (lipoamide; [1]): 0.869
thermal stability z-score (lipoamide; arsenate co-treatment: none): 0.562

RANBP10 (UniProt Q6VN20)
thermal stability z-score (potassium arsenate): 0.3
thermal stability z-score (lipoamide; [1]): 0.521
thermal stability z-score (lipoamide; arsenate co-treatment: none): 0.385

TFAM (UniProt Q00059)
thermal stability z-score (potassium arsenate): -0.121
thermal stability z-score (lipoamide; [1]): -0.198
thermal stability z-score (lipoamide; arsenate co-treatment: none): -0.126

MDC1 (UniProt Q14676)
Sequence of UniProt Q14676 (Q14676 whole entry): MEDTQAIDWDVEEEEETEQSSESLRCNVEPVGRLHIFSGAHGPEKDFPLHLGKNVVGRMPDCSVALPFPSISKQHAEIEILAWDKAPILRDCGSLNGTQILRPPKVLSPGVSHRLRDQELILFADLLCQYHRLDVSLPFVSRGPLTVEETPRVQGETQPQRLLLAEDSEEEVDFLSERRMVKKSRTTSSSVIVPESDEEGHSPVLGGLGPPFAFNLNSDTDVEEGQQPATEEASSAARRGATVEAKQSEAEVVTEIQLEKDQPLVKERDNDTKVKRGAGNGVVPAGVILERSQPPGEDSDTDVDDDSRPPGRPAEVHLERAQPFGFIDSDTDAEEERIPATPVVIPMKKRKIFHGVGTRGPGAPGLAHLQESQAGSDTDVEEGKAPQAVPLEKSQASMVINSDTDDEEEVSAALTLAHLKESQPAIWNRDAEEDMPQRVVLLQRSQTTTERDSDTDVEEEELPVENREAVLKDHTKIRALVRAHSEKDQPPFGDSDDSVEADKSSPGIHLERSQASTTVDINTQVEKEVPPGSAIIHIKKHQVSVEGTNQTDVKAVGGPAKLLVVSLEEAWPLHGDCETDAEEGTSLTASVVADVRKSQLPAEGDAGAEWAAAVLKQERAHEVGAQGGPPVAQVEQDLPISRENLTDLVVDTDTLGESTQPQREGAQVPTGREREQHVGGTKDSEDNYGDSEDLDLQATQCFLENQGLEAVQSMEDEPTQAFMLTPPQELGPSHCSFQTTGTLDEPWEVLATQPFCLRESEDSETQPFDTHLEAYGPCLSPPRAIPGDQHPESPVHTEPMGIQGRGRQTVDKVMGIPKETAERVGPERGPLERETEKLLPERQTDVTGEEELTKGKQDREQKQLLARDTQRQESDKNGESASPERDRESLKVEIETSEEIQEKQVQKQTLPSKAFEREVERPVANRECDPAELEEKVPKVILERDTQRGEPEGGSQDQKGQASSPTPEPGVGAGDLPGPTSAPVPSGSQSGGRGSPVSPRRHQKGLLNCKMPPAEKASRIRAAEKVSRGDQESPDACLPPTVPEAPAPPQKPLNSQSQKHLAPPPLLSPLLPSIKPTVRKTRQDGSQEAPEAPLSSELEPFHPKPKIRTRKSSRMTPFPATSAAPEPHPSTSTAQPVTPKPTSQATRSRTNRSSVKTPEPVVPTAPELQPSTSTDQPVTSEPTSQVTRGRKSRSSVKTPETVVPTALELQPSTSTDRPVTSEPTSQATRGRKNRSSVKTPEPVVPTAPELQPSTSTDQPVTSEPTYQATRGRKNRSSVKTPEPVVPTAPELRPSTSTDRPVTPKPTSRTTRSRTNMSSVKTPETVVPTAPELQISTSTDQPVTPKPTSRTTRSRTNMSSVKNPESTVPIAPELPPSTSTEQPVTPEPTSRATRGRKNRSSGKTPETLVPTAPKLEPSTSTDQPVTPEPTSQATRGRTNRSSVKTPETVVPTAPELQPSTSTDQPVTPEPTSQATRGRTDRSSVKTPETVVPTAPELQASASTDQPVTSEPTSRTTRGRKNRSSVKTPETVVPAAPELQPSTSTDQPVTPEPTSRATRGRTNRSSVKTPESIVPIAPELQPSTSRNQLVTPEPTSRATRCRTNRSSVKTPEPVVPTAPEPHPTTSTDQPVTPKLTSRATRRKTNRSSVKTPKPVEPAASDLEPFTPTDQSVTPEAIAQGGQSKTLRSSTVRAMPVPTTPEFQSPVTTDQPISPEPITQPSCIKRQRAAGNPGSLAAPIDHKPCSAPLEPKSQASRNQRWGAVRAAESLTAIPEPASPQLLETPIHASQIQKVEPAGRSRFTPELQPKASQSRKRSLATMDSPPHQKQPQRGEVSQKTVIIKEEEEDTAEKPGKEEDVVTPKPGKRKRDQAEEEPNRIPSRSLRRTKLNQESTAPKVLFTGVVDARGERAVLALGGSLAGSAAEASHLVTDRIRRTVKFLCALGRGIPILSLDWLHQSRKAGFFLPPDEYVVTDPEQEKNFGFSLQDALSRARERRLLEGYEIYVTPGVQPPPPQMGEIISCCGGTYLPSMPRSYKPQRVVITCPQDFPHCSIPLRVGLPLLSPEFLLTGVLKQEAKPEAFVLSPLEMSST
thermal stability z-score (potassium arsenate): -0.363
thermal stability z-score (lipoamide; [1]): 0.374
thermal stability z-score (lipoamide; arsenate co-treatment: none): 0.00253

RRP9 (UniProt O43818)
thermal stability z-score (potassium arsenate): -0.755
thermal stability z-score (lipoamide; [1]): -0.195
thermal stability z-score (lipoamide; arsenate co-treatment: none): 0.108

UGGT1 (UniProt Q9NYU2)
thermal stability z-score (potassium arsenate): 0.639
thermal stability z-score (lipoamide; [1]): -3.22
thermal stability z-score (lipoamide; arsenate co-treatment: none): -2.7

ANAPC2 (UniProt Q9UJX6)
thermal stability z-score (potassium arsenate): 0.093
thermal stability z-score (lipoamide; [1]): -0.312
thermal stability z-score (lipoamide; arsenate co-treatment: none): -0.0871

SAP18 (UniProt O00422)
thermal stability z-score (potassium arsenate): 0.519
thermal stability z-score (lipoamide; [1]): 0.465
thermal stability z-score (lipoamide; arsenate co-treatment: none): 0.0358

NUP58 (UniProt Q9BVL2)
thermal stability z-score (potassium arsenate): 0.865
thermal stability z-score (lipoamide; [1]): 2.2
thermal stability z-score (lipoamide; arsenate co-treatment: none): 0.178

SLC39A11 (UniProt Q8N1S5)
Sequence of UniProt Q8N1S5 (Q8N1S5 whole entry): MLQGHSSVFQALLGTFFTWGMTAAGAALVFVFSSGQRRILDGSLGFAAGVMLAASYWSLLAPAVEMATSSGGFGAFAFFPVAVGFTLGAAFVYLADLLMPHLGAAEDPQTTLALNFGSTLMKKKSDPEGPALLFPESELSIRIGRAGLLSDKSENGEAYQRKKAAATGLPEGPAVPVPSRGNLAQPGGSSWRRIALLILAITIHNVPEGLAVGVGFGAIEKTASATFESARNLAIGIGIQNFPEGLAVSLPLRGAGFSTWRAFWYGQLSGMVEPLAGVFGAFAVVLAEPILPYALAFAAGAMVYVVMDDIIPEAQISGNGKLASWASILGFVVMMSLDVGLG
thermal stability z-score (potassium arsenate): 0.429
thermal stability z-score (lipoamide; [1]): 0.867
thermal stability z-score (lipoamide; arsenate co-treatment: none): 0.694

C8ORF37 (UniProt Q96NL8)
thermal stability z-score (potassium arsenate): 0.161
thermal stability z-score (lipoamide; [1]): 0.385
thermal stability z-score (lipoamide; arsenate co-treatment: none): 0.235

SOD2 (UniProt P04179)
thermal stability z-score (potassium arsenate): 0.195
thermal stability z-score (lipoamide; [1]): 0.512
thermal stability z-score (lipoamide; arsenate co-treatment: none): 0.261

GSDMD (UniProt P57764)
thermal stability z-score (potassium arsenate): -0.198
thermal stability z-score (lipoamide; [1]): 0.143
thermal stability z-score (lipoamide; arsenate co-treatment: none): 0.362

GLUL (UniProt P15104)
Sequence of UniProt P15104 (P15104 whole entry): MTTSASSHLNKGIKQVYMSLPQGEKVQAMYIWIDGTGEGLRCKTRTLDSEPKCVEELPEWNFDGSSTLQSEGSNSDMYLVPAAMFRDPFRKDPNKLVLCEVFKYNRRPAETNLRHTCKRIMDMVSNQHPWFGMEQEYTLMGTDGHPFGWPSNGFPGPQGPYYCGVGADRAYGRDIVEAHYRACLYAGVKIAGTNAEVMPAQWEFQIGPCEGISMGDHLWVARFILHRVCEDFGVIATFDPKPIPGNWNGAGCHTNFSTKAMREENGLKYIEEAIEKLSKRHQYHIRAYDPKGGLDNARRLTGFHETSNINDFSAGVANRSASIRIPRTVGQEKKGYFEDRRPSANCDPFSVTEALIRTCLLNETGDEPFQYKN
thermal stability z-score (potassium arsenate): -1.16
thermal stability z-score (lipoamide; [1]): 0.732
thermal stability z-score (lipoamide; arsenate co-treatment: none): 0.282

PPP4C (UniProt P60510)
thermal stability z-score (potassium arsenate): 0.166
thermal stability z-score (lipoamide; [1]): 0.813
thermal stability z-score (lipoamide; arsenate co-treatment: none): 0.205

VPS39 (UniProt Q96JC1)
thermal stability z-score (potassium arsenate): 0.407
thermal stability z-score (lipoamide; [1]): -0.937
thermal stability z-score (lipoamide; arsenate co-treatment: none): -0.6

ARHGAP28 (UniProt Q9P2N2)
thermal stability z-score (potassium arsenate): -0.0848
thermal stability z-score (lipoamide; [1]): -0.114
thermal stability z-score (lipoamide; arsenate co-treatment: none): -0.103

FAM117B (UniProt Q6P1L5)
thermal stability z-score (potassium arsenate): 0.314
thermal stability z-score (lipoamide; [1]): -1.14
thermal stability z-score (lipoamide; arsenate co-treatment: none): 0.461

CDC40 (UniProt O60508)
Sequence of UniProt O60508 (O60508 whole entry): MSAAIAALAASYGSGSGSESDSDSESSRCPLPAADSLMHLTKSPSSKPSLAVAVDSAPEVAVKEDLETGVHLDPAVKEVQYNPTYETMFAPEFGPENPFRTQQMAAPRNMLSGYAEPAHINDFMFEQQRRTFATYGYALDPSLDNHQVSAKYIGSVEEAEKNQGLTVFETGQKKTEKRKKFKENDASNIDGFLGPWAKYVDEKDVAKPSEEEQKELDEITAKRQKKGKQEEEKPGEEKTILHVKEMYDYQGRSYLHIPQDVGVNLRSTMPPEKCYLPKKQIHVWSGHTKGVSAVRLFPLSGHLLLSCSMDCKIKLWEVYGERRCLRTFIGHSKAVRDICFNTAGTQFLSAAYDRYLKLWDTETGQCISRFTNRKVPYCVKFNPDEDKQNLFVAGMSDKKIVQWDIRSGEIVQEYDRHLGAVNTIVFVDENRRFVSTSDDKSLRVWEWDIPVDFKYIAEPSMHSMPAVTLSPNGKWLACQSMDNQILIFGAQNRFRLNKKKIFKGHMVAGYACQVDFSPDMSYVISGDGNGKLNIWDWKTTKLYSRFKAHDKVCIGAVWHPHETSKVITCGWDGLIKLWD
thermal stability z-score (potassium arsenate): 0.0978
thermal stability z-score (lipoamide; [1]): -0.117
thermal stability z-score (lipoamide; arsenate co-treatment: none): 0.182

UBA52 (UniProt P62987)
thermal stability z-score (potassium arsenate): -0.00358
thermal stability z-score (lipoamide; [1]): 1.26
thermal stability z-score (lipoamide; arsenate co-treatment: none): 1.15

ARHGEF11 (UniProt O15085)
thermal stability z-score (potassium arsenate): 0.14
thermal stability z-score (lipoamide; [1]): -0.0428
thermal stability z-score (lipoamide; arsenate co-treatment: none): 0.152

UQCRC1 (UniProt P31930)
thermal stability z-score (potassium arsenate): -1.38
thermal stability z-score (lipoamide; [1]): 1.43
thermal stability z-score (lipoamide; arsenate co-treatment: none): 0.508

KNOP1 (UniProt Q1ED39)
thermal stability z-score (potassium arsenate): 0.831
thermal stability z-score (lipoamide; [1]): 0.735
thermal stability z-score (lipoamide; arsenate co-treatment: none): -0.755

EIF2AK1 (UniProt Q9BQI3)
thermal stability z-score (potassium arsenate): 0.583
thermal stability z-score (lipoamide; [1]): -0.867
thermal stability z-score (lipoamide; arsenate co-treatment: none): 0.23

SFR1 (UniProt Q86XK3)
Sequence of UniProt Q86XK3 (Q86XK3 whole entry): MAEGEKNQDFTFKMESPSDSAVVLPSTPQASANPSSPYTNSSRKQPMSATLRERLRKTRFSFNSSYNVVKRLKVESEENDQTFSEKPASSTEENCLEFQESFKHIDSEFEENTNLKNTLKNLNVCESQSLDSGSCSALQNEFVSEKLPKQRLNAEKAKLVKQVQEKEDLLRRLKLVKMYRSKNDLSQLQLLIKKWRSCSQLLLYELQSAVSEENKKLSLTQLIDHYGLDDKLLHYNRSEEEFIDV
thermal stability z-score (potassium arsenate): 0.036
thermal stability z-score (lipoamide; [1]): -0.12
thermal stability z-score (lipoamide; arsenate co-treatment: none): -0.359

PI4KB (UniProt Q9UBF8)
thermal stability z-score (potassium arsenate): 0.692
thermal stability z-score (lipoamide; [1]): -0.62
thermal stability z-score (lipoamide; arsenate co-treatment: none): 0.386

ATP5B (UniProt P06576)
thermal stability z-score (potassium arsenate): 0.0331
thermal stability z-score (lipoamide; [1]): -0.424
thermal stability z-score (lipoamide; arsenate co-treatment: none): -0.332

ICOSLG (UniProt O75144)
thermal stability z-score (potassium arsenate): -0.984
thermal stability z-score (lipoamide; [1]): -0.136
thermal stability z-score (lipoamide; arsenate co-treatment: none): -0.0493

SPC25 (UniProt Q9HBM1)
thermal stability z-score (potassium arsenate): 0.191
thermal stability z-score (lipoamide; [1]): 0.989
thermal stability z-score (lipoamide; arsenate co-treatment: none): -0.483

SMG8 (UniProt Q8ND04)
thermal stability z-score (potassium arsenate): 0.575
thermal stability z-score (lipoamide; [1]): -1.73
thermal stability z-score (lipoamide; arsenate co-treatment: none): -0.705

PLEKHA5 (UniProt Q9HAU0)
thermal stability z-score (potassium arsenate): 0.0794
thermal stability z-score (lipoamide; [1]): 0.191
thermal stability z-score (lipoamide; arsenate co-treatment: none): 0.254

CDH10 (UniProt Q9Y6N8)
thermal stability z-score (potassium arsenate): 1.02
thermal stability z-score (lipoamide; [1]): 0.493
thermal stability z-score (lipoamide; arsenate co-treatment: none): 0.14

TXLNG (UniProt Q9NUQ3)
thermal stability z-score (potassium arsenate): 1.86
thermal stability z-score (lipoamide; [1]): 0.386
thermal stability z-score (lipoamide; arsenate co-treatment: none): 0.0198

RNMT (UniProt O43148)
thermal stability z-score (potassium arsenate): 0.381
thermal stability z-score (lipoamide; [1]): 0.428
thermal stability z-score (lipoamide; arsenate co-treatment: none): 0.541

ATP1B1 (UniProt P05026)
thermal stability z-score (potassium arsenate): -0.201
thermal stability z-score (lipoamide; [1]): 0.104
thermal stability z-score (lipoamide; arsenate co-treatment: none): -0.207
